Experimental data as given in publication PMC11364104, “Discovery of SARS-CoV-2 papain-like protease (PL^pro) inhibitors with efficacy in a murine infection model” (Science Advances, 2024).

How the values were obtained:
Monkey pharmacokinetics = format: in vivo; details: plasma, Male Cynomolgus Monkey, 1.0 mg/kg iv, solution, mean n=2
Protocol: from Vital River (Beijing, China) and were typically 7-9 weeks of age at the time of dosing.
During the pharmacokinetic studies all animals were housed individually. Access to food and water was provided ad libitum (i.e., subjects were dosed in the fed state). In the instances where oral (po) dose was administered in the fed state, with ad libitum access to food and water. Compounds were administered intravenously (iv) via the tail vein (n = 2) dosed as a solution (1 mg/kg, 3 ml/kg) or via oral gavage as a solution (10 mg/kg, 10 ml/kg). Dosing solutions were prepared immediately before dosing. The composition of each dosing vehicle […]
Serial blood samples were collected via the jugular vein cannula at predetermined timepoints after dosing. Animals were monitored for pain or distress throughout the study, with at least daily monitoring during normal husbandry prior to study start. At the completion of the study, animals were euthanized by overdose of inhaled carbon dioxide. Blood samples were collected into tubes containing K2EDTA and stored on ice until centrifugation to obtain plasma, which was stored frozen at - 20 °C or lower.
Dog pharmacokinetic studies were done at Pfizer (Groton, CT). All procedures performed on beagle dogs were in accordance with regulations and established guidelines and were reviewed and approved by an Institutional Animal Care and Use Committee through an ethical review process. Male Beagle dogs were purchased from Marshall Bioresources (North Rose, NY); subjects 3 years of age were used in pharmacokinetics studies. For each study (n=2), compounds were dosed iv by cephalic vein as a solution (0.5 mg/kg, 1 mL/kg) or via oral gavage as a suspension (3 mg/kg, 5 mL/kg). In the instances where oral (po) dose was administered in the fed state, dogs were fed a couple hours before dosing. In the instances where the IV dose was administered in the fasted state, dogs were fasted over night and fed 4 hours post dose. Subjects were monitored for pain or distress throughout the study followed by at least daily monitoring while off study. The iv dosing vehicle was optimized such that the compounds were in solution and stable for at least 24 h. Serial blood samples were collected via the jugular vein at predefined time points post-dose. […]
Monkey pharmacokinetic studies were conducted at Pfizer (Groton, CT). […] Subjects were monitored for pain or distress throughout the study followed by at least daily monitoring while off study. […]
Plasma samples were processed using protein precipitation with 50:50 acetonitrile: methanol containing terfenadine (5 ng/ml) as an internal standard followed by quantitation against a standard curve (0.1-1000 ng/ml) prepared in blank plasma. Quantitation of analyte in plasma samples was done using LC-MS/MS. […]

Human Thrombin = target: T1, Human Thrombin (Homo sapiens, UniProt P00734); assay: biochemical
T1 construct: assay run at Reaction Biology Corporation

Human Cathepsin L = target: T2, Human Cathepsin L (Homo sapiens, UniProt P07711); assay: biochemical
T2 construct: assay run at Reaction Biology Corporation

[1] = target: Human Immunodeficiency Virus-1 protease (Human immunodeficiency virus type 1 group M subtype B, UniProt P04585); assay: biochemical
Cyclooxygenase 2 = target: T3, Cyclooxygenase 2 (Homo sapiens, UniProt P35354); assay: CEREP enzyme inhibition; format: biochemical
T3 construct: purchased Eurofins Cerep

Monoamine Oxidase = assay: CEREP enzyme inhibition; format: biochemical; details: 30 µM
P38 MAP Kinase = target: T4, P38 MAP Kinase (Homo sapiens, UniProt Q16539); assay: CEREP kinase inhibition; format: biochemical
T4 construct: purchased Eurofins Cerep

Src Kinase = target: T5, Src Kinase (Homo sapiens, UniProt P12931); assay: CEREP kinase inhibition; format: biochemical
T5 construct: purchased Eurofins Cerep

VEGFR2 Kinase = target: T6, VEGFR2 Kinase (Homo sapiens, UniProt P35968); assay: CEREP kinase inhibition; format: biochemical
T6 construct: purchased Eurofins Cerep

[2] = target: T7, Norepinephrine Transporter (Homo sapiens, UniProt P23975); assay: CEREP transporters-binding
T7 construct: purchased Eurofins Cerep

Dopamine Transporter = target: T8, Dopamine Transporter (Homo sapiens, UniProt Q01959); assay: CEREP transporters-binding
T8 construct: purchased Eurofins Cerep

Choline Transporter = target: T9, Choline Transporter (Homo sapiens, UniProt Q9GZV3); assay: CEREP transporters-binding
T9 construct: purchased Eurofins Cerep

GABA Transporter = assay: CEREP transporters-binding; details: 30 µM
L-Type Ca (verapamil) = assay: CEREP ion channel-binding; details: 30 µM
Vero E6 cells = details: read-out: Mean CC50; n=3
[3] = In vitro genetic toxicity (bacterial reverse mutation assay); details: in vitro genetic toxicity studies; listed as PF-07957472

T8 sequence (Q01959 whole entry): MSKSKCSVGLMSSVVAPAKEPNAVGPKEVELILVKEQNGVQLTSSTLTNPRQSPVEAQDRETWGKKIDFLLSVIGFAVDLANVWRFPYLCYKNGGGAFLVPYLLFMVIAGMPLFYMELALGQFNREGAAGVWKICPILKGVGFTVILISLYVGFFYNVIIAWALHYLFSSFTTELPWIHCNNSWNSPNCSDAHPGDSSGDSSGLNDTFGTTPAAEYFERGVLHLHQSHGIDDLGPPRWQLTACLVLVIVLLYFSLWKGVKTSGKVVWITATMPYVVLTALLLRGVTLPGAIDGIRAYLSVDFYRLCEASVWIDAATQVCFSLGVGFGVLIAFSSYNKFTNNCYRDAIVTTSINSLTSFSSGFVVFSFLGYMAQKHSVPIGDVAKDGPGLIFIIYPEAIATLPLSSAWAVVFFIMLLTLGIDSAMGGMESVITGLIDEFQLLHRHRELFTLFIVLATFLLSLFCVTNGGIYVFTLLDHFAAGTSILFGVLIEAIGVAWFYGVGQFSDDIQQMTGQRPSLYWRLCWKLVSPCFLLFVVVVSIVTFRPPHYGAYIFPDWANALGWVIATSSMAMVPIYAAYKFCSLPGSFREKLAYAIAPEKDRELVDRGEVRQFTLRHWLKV
T9 sequence (Q9GZV3 whole entry): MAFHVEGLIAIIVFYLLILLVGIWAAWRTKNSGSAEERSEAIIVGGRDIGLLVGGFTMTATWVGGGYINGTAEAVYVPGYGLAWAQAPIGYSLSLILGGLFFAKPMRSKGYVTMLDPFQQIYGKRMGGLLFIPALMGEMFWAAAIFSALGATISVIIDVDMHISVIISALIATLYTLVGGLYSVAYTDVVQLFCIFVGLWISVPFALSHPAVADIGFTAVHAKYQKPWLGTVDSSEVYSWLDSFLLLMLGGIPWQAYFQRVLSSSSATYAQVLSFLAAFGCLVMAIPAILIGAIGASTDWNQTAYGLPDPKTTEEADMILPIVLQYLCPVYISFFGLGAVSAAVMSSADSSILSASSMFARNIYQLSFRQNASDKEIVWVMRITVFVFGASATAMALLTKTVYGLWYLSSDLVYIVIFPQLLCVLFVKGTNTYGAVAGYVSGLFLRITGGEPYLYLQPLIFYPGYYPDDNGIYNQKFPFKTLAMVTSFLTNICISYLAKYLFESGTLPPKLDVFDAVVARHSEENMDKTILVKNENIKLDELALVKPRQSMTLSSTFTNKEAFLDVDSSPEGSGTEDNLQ
T6 sequence (P35968 20-1356): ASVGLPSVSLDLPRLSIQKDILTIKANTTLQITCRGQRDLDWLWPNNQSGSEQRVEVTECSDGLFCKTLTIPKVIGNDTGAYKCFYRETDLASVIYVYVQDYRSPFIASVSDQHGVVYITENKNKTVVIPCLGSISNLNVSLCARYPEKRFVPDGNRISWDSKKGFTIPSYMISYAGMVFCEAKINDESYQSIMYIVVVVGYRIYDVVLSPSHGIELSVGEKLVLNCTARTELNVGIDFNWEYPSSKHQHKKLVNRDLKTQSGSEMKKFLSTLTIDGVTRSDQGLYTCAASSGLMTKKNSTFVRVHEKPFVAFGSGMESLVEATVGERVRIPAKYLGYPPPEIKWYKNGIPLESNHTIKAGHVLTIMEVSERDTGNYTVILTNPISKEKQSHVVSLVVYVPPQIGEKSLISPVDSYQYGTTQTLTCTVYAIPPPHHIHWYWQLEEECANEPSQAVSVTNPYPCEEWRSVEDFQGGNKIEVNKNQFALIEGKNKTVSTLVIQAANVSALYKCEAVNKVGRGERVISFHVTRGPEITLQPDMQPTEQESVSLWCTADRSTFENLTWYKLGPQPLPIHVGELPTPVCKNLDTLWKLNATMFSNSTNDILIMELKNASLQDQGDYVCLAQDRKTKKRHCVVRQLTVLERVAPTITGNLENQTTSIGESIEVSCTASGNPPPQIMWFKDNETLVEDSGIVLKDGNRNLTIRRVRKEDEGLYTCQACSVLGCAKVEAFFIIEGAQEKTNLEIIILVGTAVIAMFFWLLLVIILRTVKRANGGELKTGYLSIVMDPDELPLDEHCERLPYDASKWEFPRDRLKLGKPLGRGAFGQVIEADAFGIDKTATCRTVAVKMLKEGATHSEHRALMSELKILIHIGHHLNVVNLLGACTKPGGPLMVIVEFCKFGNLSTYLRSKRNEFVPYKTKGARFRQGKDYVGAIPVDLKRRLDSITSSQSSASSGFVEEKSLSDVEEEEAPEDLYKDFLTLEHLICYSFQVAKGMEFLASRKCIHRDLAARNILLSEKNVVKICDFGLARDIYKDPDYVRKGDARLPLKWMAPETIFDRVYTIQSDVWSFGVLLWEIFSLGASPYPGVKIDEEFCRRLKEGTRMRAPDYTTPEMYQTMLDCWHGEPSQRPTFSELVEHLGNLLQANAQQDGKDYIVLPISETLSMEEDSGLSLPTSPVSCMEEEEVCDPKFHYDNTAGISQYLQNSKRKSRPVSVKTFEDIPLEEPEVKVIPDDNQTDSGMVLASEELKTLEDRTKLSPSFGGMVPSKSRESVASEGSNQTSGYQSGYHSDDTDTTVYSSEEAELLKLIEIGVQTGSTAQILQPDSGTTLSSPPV
T4 sequence (Q16539 whole entry): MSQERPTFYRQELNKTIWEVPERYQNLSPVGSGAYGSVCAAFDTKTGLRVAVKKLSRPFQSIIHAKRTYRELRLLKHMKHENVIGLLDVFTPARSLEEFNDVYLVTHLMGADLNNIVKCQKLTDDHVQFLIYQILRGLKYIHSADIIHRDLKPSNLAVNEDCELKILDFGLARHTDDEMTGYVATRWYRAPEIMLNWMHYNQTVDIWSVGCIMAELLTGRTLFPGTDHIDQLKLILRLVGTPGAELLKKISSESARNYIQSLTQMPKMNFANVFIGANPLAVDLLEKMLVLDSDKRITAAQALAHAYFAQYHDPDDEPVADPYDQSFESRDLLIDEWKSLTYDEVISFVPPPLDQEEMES
T5 sequence (P12931 whole entry): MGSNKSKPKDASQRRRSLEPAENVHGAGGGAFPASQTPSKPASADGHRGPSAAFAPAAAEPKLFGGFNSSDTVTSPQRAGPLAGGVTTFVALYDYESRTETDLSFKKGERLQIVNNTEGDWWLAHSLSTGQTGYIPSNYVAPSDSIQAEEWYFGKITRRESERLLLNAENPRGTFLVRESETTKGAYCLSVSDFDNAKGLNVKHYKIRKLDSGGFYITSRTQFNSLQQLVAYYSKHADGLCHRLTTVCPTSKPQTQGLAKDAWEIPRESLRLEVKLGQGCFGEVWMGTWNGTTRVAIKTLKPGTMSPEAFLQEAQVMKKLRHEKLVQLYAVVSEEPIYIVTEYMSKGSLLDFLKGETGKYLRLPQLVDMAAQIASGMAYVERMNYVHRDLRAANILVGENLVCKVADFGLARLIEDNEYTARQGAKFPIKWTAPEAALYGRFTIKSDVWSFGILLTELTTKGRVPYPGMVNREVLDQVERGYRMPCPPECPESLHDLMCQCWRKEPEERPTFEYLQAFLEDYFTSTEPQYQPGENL
T3 sequence (P35354 18-604): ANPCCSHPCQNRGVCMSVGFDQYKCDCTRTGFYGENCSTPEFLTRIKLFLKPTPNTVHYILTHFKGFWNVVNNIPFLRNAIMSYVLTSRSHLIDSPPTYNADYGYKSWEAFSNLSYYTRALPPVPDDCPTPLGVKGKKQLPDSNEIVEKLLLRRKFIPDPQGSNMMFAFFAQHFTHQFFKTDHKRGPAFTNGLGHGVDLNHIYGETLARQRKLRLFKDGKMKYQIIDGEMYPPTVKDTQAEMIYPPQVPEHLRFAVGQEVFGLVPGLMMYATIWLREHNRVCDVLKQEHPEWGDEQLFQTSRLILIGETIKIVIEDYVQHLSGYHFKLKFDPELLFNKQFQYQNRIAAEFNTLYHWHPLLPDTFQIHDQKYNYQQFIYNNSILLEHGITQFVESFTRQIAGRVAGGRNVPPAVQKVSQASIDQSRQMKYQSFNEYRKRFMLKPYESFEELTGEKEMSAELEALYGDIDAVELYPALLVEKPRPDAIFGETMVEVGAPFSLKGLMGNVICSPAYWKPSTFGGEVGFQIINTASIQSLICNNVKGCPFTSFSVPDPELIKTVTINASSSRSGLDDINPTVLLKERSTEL
T7 sequence (P23975 whole entry): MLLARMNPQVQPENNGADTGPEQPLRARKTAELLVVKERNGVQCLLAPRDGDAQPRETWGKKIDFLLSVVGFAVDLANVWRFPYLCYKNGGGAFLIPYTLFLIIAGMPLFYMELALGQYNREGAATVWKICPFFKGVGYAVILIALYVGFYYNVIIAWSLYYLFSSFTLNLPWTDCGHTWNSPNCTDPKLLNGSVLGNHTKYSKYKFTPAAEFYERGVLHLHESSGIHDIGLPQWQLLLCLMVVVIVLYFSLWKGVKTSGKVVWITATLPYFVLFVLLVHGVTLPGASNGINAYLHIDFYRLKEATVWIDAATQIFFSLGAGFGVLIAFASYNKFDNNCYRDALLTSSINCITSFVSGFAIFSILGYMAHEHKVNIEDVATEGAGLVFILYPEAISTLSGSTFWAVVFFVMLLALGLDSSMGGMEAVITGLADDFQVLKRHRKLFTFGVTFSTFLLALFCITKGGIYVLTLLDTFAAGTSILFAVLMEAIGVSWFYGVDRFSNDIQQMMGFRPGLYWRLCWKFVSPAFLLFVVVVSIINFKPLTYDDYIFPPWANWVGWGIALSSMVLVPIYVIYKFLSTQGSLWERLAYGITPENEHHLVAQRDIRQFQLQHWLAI
T2 sequence (P07711 114-333): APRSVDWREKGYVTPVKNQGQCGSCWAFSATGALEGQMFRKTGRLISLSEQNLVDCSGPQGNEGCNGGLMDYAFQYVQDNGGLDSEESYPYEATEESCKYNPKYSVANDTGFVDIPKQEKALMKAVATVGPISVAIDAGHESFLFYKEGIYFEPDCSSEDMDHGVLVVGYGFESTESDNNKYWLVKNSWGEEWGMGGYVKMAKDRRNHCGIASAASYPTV

Cc1ccc(N2CCN(C)CC2)cc1C(=O)NC1(c2cc(-c3cnn(C)c3)nc3ccccc23)CC1 [Compound 4]
AUC(0-inf) (Monkey pharmacokinetics): 1600 ng·h/mL | half-life (Monkey pharmacokinetics): 3.56 h | clearance (Monkey pharmacokinetics; read-out: CLp): 10.7 mL/min/kg | Vd (Monkey pharmacokinetics; read-out: Vdss): 2.09 L/kg | IC50 (Human Thrombin): > 100 µM | IC50 (Human Cathepsin L): > 100 µM | IC50 [1]: > 100 µM | inhibition at 30 µM (Cyclooxygenase 2): 36% | % inhibition (Monoamine Oxidase): 16% | inhibition at 30 µM (P38 MAP Kinase): 10% | inhibition at 30 µM (Src Kinase): -5% | inhibition at 30 µM (VEGFR2 Kinase): 11% | inhibition at 30 µM [2]: -6% | inhibition at 30 µM (Dopamine Transporter): 8% | inhibition at 30 µM (Choline Transporter): 25% | % inhibition (GABA Transporter): -4% | % inhibition (L-Type Ca (verapamil)): -19% | CC50 (Vero E6 cells): 78.7 µM | In vitro genotoxicity screen [3]: not mutagenic or clastogenic
